Consider two molecules from patent US20160025704A1, “METHODS FOR IDENTIFYING NEUROPROTECTIVE PKC ACTIVATORS” (priority 2013, published 2016).

Like-named read-outs stand apart in the source and are kept apart here.

In one data set the test system is 5XFAD mice. Briefly: Water maze learning and memory and amyloid deposition in 5XFAD mice. It is filed as in vivo. The settings on record: 2 times/week from 2 months old. The text has this:
Protocol: 5-month old 5XFAD mice were trained for 5-6 days (3-4 trials/day) to find a hidden platform (9 cm diameter), submerged about 2 cm below the water surface in the a maze pool with 114 cm diameter. After the training trials, a probe trial (a quadrant test or memory retention trial) was given with the platform removed to assess memory retention for its location by the distance the mouse moved in the quadrants. […] Non-treated groups (wild-type and transgenic (5×) mice) received the same vehicle volumes, mechanism of delivery, and frequency of administration as the treated groups

The target in a further data set is T1, PKC-ε (Homo sapiens, UniProt Q02156).
T1 sequence (Q02156 1-737): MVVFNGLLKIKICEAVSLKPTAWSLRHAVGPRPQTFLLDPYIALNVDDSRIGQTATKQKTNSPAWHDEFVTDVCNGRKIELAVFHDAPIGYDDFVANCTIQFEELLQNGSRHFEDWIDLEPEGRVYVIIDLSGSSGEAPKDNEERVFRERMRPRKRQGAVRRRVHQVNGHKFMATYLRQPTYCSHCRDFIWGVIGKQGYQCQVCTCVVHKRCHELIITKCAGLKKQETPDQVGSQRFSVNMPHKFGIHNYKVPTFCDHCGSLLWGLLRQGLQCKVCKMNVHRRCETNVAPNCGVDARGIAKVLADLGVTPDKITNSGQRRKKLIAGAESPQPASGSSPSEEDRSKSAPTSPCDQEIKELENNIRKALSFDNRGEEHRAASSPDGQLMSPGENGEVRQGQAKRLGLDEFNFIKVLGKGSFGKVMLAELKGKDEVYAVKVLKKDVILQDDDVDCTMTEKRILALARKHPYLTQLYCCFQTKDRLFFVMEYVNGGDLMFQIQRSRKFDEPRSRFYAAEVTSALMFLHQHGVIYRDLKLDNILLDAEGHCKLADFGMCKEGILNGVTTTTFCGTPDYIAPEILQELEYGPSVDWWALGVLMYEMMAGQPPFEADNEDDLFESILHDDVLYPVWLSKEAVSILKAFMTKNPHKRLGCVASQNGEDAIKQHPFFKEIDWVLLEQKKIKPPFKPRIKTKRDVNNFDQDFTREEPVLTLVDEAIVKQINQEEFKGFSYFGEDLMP
The data set can be described thus: Activation of purified PKC isozymes. It is filed as biochemical. As for the experimental part:
Protocol: Purified PKC-α, βII, γ, δ, or ε (9 ng) was preincubated for 5 minutes at room temperature with the following PKC activators: (A) DHA-CP6, (B) EPA-CP5, (C) AA-CP4, (D) DCP-LA, (E) “other cyclopropaneated and epoxidized fatty acids, alcohols, and methyl esters.” followed by measurement of PKC activity as described under Experimental Procedures. Results are shown below in FIG. 6.

In data set [1] the test system is TA 100 cells & TA 1535 cells / TA 98 cells. The data set can be described thus: AMES testing, overall result (mutagenic potential). It is filed as cell-based. An excerpt: The AMES test is a rapid screening of the mutagenic potential of chemical compounds. […] Between 50% and 70% of all known carcinogens test positive in the AMES test.
Another data set concerns ECE. The data set can be described thus: ECE activity in SH-SY5Y cells (fluorometric). The format is cell-based. The settings on record: compared to ethanol alone. As for the experimental part:
Aβ can be degraded in vivo by a number of enzymes, including insulin degrading enzyme (insulysin), neprilysin, and ECE (FIG. 12). Because PKC-ε overexpression has been reported to activate ECE (Choi et al., Proc. Natl. Acad. Sci. USA. 2006; 103: 8215-20), the effect of PKC activators on ECE was analyzed. Candidate PKC activators were added to either SH-SY5Y cells (Bryo—0.27 nM, DCP-LA—1 μM, and DHA-CP6 1 μM) or cultured neurons (DHA-CP6—1 μM, EPA-CP5— 1 μM, and AA-CP4— 1 μM), and grown on either 12- or 24-well plates. After various time periods, the cells were collected and ECE activity was measured fluorometrically. Results are shown below in FIG. 13. *, p<0.05; **, p<0.001.
PKCε overexpression has been reported to activate endothelin converting enzyme (ECE). The effect of PKC activators on ECE was measured here with Bryostatin, DCP-LA, and DHA-CP6. […] Protocol: Bryostatin (0.27 nM), DCP-LA (1 μM), DHACP6 (1 μM), EPA-CP5 (1 μM), AA-CP4 (1 μM), or ethanol alone were added to SH-SYSY cells growing on 12- or 24-well plates. After various periods of time, the cells were collected and ECE activity was measured fluorometrically as showing in FIG. 34 below (* p<0.05, ** p<0.001).

On to `CCC/C=C/C=C/C(=O)O[C@H]1/C(=C/C(=O)OC)C[C@H]2C[C@H]([C@@H](C)O)OC(=O)C[C@H](O)C[C@@H]3C[C@H](OC(C)=O)C(C)(C)[C@](O)(C[C@@H]4C/C(=C/C(=O)OC)C[C@H](/C=C/C(C)(C)[C@]1(O)O2)O4)O3` [Bryostatin, bryostatin-1], for which, in the data set on 5XFAD mice (30 μg/kg intraperitoneal), the amyloid deposition entry is “reduced amyloid deposition”; the “learning and memory deficits (water maze)” value is “prevented learning (A, C) and memory deficits (B, D)”. Moreover, the “activation of α isoform versus ε isoform” value on PKC-ε (in vitro measurements with purified PKC isozymes) was “activates the α isoform and ε isoform equally”. Moreover, the AMES testing result in data set [1] (summary of Tables 1-4) was “not mutagenic”. Further, the ECE activity result with ECE (0.27 nM) was “sustained increase in ECE activity”. Besides, the ECE activity result with ECE (0.27 nM, listed as Bryo) is on record as “increase in ECE activity”.

For `CCCCCC1CC1CC1CC1CCCCCCCC(=O)O` (stereo not drawn) [DCPLA, 8-[2-(2-pentylcyclopropyl)methyl]-cyclopropaneoctanoic acid], in the data set on 5XFAD mice (20 mg/m2 tail vein), the amyloid deposition result is on record as “reduced amyloid deposition”; the “learning and memory deficits (water maze)” value was “prevented learning (A, C) and memory deficits (B, D)”. The “PKC-ε specificity versus PKC-α and PKC-δ” value at PKC-ε (purified PKC isozymes (9 ng), preincubated 5 minutes at room temperature) was “PKC-ε specificity ±15% PKC-α and PKC-δ”. Also, in data set [1], the AMES testing result is on record as “not mutagenic” and the “Result (Mutagenic Potential)” value is listed as “Result: Not mutagenic, p > 0.05”. In addition, the ECE activity entry in the data set on ECE (1 μM) is recorded as “sustained increase in ECE activity”.
